According to patent publication US9000020B2, “Linked dibenzimidazole antivirals” (Enanta Pharmaceuticals, Inc., priority 2009, dated 2015):

System: HCV 1b genotype replicon
Experiment: HCV Replicon Assay - qRT-PCR (HCV RNA detection)
Format: cell-based
Conditions: Hepatitis C virus, from the qRT-PCR or luciferase assay (not specified which), read-out: Genotype-1b replicon EC50 Range
From the text: HCV replicon cell lines (kindly provided by R. Bartenschlager) isolated from colonies as described by Lohman et. al. (Lohman et al. (1999) Science 285: 110-113, expressly incorporated by reference in its entirety) and used for all experiments. The HCV replicon has the nucleic acid sequence set forth in EMBL Accession No.: AJ242651, the coding sequence of which is from nucleotides 1801 to 8406.
The coding sequence of the published HCV replicon was synthesized and subsequently assembled in a modified plasmid pBR322 (Promega, Madison, Wis.) using standard molecular biology techniques. One replicon cell line (“SGR 11-7”) stably expresses HCV replicon RNA which consists of (i) the HCV 5′UTR fused to the first 12 amino acids of the capsid protein, (ii) the neomycin phosphotransferase gene (neo), (iii) the IRES from encephalomyocarditis virus (EMCV), and (iv) HCV NS2 to NS5B genes and the HCV 3′UTR. Another replicon cell line (“Huh-luc/neo-ET”) described by Vrolijk et. al. (Vrolijk et. al. (2003) Journal of Virological Methods 110:201-209, expressly incorporated by reference in its entirety) stably expresses HCV replicon RNA which consists of (i) the HCV 5′UTR fused to the first 12 amino acids of the capsid protein, (ii) the firefly luciferase reporter gene, (iii) the ubiquitin gene, (iv) the neomycin phosphotransferase gene (neo), (v) the IRES from encephalomyocarditis virus (EMCV), and (vi) HCV NS3 to NS5B genes that harbor cell culture adaptive mutations (E1202G, T1280I, K1846T) and the HCV 3′UTR.
These cell lines were maintained at 37° C., 5% CO2, 100% relative humidity in DMEM (Cat #11965-084, Invitrogen), with 10% fetal calf serum (“FCS”, Invitrogen), 1% non-essential amino acids (Invitrogen), 1% of Glutamax (Invitrogen), 1% of 100× penicillin/streptomycin (Cat #15140-122, Invitrogen) and Geneticin (Cat #10131-027, Invitrogen) at 0.75 mg/ml or 0.5 mg/ml for 11-7 and Huh-luc/neo-ET cells, respectively.
EC50 values of single agent compounds and combinations were determined by HCV RNA detection using quantitative RT-PCR, according to the manufacturer's instructions, with a TaqMan® One-Step RT-PCR Master Mix Reagents Kit (Cat #AB 4309169, Applied Biosystems) on an ABI Model 7500 thermocycler. The TaqMan primers used for detecting and quantifying were obtained from Integrated DNA Technologies. HCV RNA was normalized to GAPDH RNA levels in drug-treated cells, which was detected and quantified using the Human GAPDH Endogenous Control Mix (Applied Biosystems, AB 4310884E). Total cellular RNA was purified from 96-well plates using the RNAqueous 96 kit (Ambion, Cat #AM1812). Chemical agent cytotoxicity was evaluated using an MTS assay according to the manufacturer's directions (Promega).
The compounds of the present invention can be effective against the HCV 1b genotype. It should also be understood that the compounds of the present invention can inhibit multiple genotypes of HCV. In one embodiment, compound of the present invention are active against the 1a, 1b, 2a, 2b, 3a, 4a, and 5a genotypes. […] EC50 ranges against HCV 1b are as follows: A>10 nM; B 1-10 nM; C<1 nM.

Row | Compound | EC50 [nM]
1 | CN(C)[C@@H](C(=O)N1CCC[C@H]1c1nc2cc(-c3ccc(-c4ccc5[nH]c([C@@H]6CCCN6C(=O)[C@@H](c6ccccc6)N(C)C)nc5c4)cc3)ccc2[nH]1)c1ccccc1 [Compound 2] | < 1
2 | COC(=O)N[C@@H](C(=O)N1CCC[C@H]1c1nc2cc(-c3ccc(-c4ccc5[nH]c([C@@H]6CCCN6C(=O)[C@H](NC(=O)OC)c6ccccc6)nc5c4)cc3)ccc2[nH]1)c1ccccc1 [Compound 3] | < 1
3 | CO[C@@H](C(=O)N1CCC[C@H]1c1nc2cc(-c3ccc(-c4ccc5[nH]c([C@@H]6CCCN6C(=O)[C@H](OC)c6ccccc6)nc5c4)cc3)ccc2[nH]1)c1ccccc1 [Compound 20] | < 1
4 | O=C([C@@H]1CCCO1)N1CCC[C@H]1c1nc2cc(-c3ccc(-c4ccc5[nH]c([C@@H]6CCCN6C(=O)[C@@H]6CCCO6)nc5c4)cc3)ccc2[nH]1 [Compound 25] | > 10
5 | O=C([C@H]1CCCO1)N1CCC[C@H]1c1nc2cc(-c3ccc(-c4ccc5[nH]c([C@@H]6CCCN6C(=O)[C@H]6CCCO6)nc5c4)cc3)ccc2[nH]1 [Compound 26] | > 10
6 | COC(=O)N[C@H]1CC[C@H](C(=O)N2CCC[C@H]2c2nc3cc(-c4ccc(-c5ccc6[nH]c([C@@H]7CCCN7C(=O)[C@H]7CC[C@H](NC(=O)OC)CC7)nc6c5)cc4)ccc3[nH]2)CC1 [Compound 42] | > 10
7 | O=C(c1ccncc1)N1CCC[C@H]1c1nc2cc(-c3ccc(-c4ccc5[nH]c([C@@H]6CCCN6C(=O)c6ccncc6)nc5c4)cc3)ccc2[nH]1 [Compound 52] | > 10
8 | O=C(c1ccccn1)N1CCC[C@H]1c1nc2cc(-c3ccc(-c4ccc5[nH]c([C@@H]6CCCN6C(=O)c6ccccn6)nc5c4)cc3)ccc2[nH]1 [Compound 54] | > 10
9 | COC(=O)N[C@@H](C)C(=O)N1CCC[C@H]1c1nc2cc(-c3ccc(-c4ccc5[nH]c([C@@H]6CCCN6C(=O)[C@H](C)NC(=O)OC)nc5c4)cc3)ccc2[nH]1 [Compound 62] | < 1
10 | CC[C@H](NC(=O)OC)C(=O)N1CCC[C@H]1c1nc2cc(-c3ccc(-c4ccc5[nH]c([C@@H]6CCCN6C(=O)[C@H](CC)NC(=O)OC)nc5c4)cc3)ccc2[nH]1 [Compound 67] | < 1
11 | COC(=O)N[C@H](C(=O)N1CCC[C@H]1c1nc2cc(-c3ccc(-c4ccc5[nH]c([C@@H]6CCCN6C(=O)[C@@H](NC(=O)OC)[C@@H](C)O)nc5c4)cc3)ccc2[nH]1)[C@@H](C)O [Compound 70] | < 1
12 | COC(=O)N[C@H](C(=O)N1CCC[C@H]1c1nc2cc(-c3ccc(-c4ccc5[nH]c([C@@H]6CCCN6C(=O)[C@@H](NC(=O)OC)[C@@H](C)OC)nc5c4)cc3)ccc2[nH]1)[C@@H](C)OC [Compound 72] | < 1
13 | COC(=O)N[C@H](C(=O)N1CCC[C@H]1c1nc2cc(-c3ccc(-c4ccc5[nH]c([C@@H]6CCCN6C(=O)[C@@H](NC(=O)OC)C6CC6)nc5c4)cc3)ccc2[nH]1)C1CC1 [Compound 78] | < 1
14 | COC(=O)N[C@H](C(=O)N1CCC[C@H]1c1nc2cc(-c3ccc(-c4ccc5[nH]c([C@@H]6CCCN6C(=O)[C@@H](NC(=O)OC)C(C)C)nc5c4)cc3)ccc2[nH]1)C(C)C [Compound 83] | < 1
15 | COC(=O)N[C@@H](Cn1cccn1)C(=O)N1CCC[C@H]1c1nc2cc(-c3ccc(-c4ccc5[nH]c([C@@H]6CCCN6C(=O)[C@H](Cn6cccn6)NC(=O)OC)nc5c4)cc3)ccc2[nH]1 [Compound 114] | < 1
16 | COC(=O)N[C@@H](C(=O)N1CCC[C@H]1c1nc2cc(N3CCN(c4ccc5[nH]c([C@@H]6CCCN6C(=O)[C@H](NC(=O)OC)c6ccccc6)nc5c4)CC3)ccc2[nH]1)c1ccccc1 [Compound 354] | < 1
17 | COC(=O)N[C@@H](C(=O)N1CCC[C@H]1c1nc2cc(N3CC(=O)N(c4ccc5[nH]c([C@@H]6CCCN6C(=O)[C@H](NC(=O)OC)c6ccccc6)nc5c4)CC3=O)ccc2[nH]1)c1ccccc1 [Compound 357] | > 10
18 | CC(C)[C@H](NC(=O)OCc1ccccc1)C(=O)N1CCC[C@H]1c1nc2cc(-c3ccc(-c4ccc5[nH]c([C@@H]6CCCN6C(=O)[C@@H](NC(=O)OCc6ccccc6)C(C)C)nc5c4)cc3)ccc2[nH]1 [Compound 361] | > 10
19 | COC(=O)N[C@H](C(=O)N1CCC[C@H]1c1nc2cc(-c3ccc(-c4ccc5[nH]c([C@@H]6CCCN6C(=O)[C@@H](NC(=O)OC)C(C)(C)C)nc5c4)cc3)ccc2[nH]1)C(C)(C)C [Compound 372] | < 1
